Experimental data published in patent US8388944B2, “Inactivating organisms using carbon dioxide at or near its supercritical pressure and temperature conditions” (Novasterilis Inc., priority 2003, dated 2013).
Structures can show the parent of a compound that is named as a salt.

Key:
[1] = tested on: B. stearothermophilus spores; assay: Inactivation of B. stearothermophilus spores, CFU counted after serial dilution and culturing; type: cell-based; conditions: for CFU/mL after treatment: start 2.3×10^6 CFU/mL
Excerpt: The effects of using an additive in accordance with the present invention was compared using the process described by U.S. Pat. No. 6,149,864 to Dillow et al. for inactivating B. stearothermophilus spores. […] In contrast, 6.4-log inactivation (i.e., 2.3×10^6 CFU/mL to undetectable) was achieved using the process of the present invention (i.e., 1100 psi to 3000 psi with random and directional agitation, and including TFA as the chemical additive). The chemical additive was placed on a cotton ball and inserted in the chamber prior to closure. No further chemical additive was used.
The apparatus generally depicted in FIG. 1 was employed. A sample of B. stearothermophilus spores (1 mL) of greater than 10^6 CFU/mL was placed in 16 mm diameter test tubes in a stainless steel basket. Trifluoroacetic acid (4 mL) was transferred by syringe onto the surface of a cotton ball placed in the basket and water (6 mL) was placed at bottom of vessel. The basket was then loaded into the 600 mL reactor vessel. The reactor vessel was heated to 50° C. and equilibrated with CO2 at atmospheric pressure. The stirring and agitation mechanisms were activated and the reactor vessel pressurized to […] for 40 minutes. The CO2 pressure was then allowed to drop to 1100 psi at a rate of 300 psi/minute. Agitation by means of vibration of the vessel was carried out for 1 minute.
The pressurization/stirring/agitation/depressurization process was repeated a total of three times. After the third cycle, a series of three flushing cycles to remove the additive was performed by pressurizing and partial depressurizing the reactor vessel using CO2. The stirring was stopped and the basket was removed from the reactor vessel. Any remaining CFU were counted after serial dilution and culturing of both treated and untreated controls.

Escherichia coli = assay: Inactivation of bacteria by supercritical carbon dioxide; type: cell-based; conditions: 34° C., 2973 psi to 1500 psi, three cycles over 0.5 hours
Excerpt: (§1) Maintaining the natural presentation environment for a given antigen generally enhances the protective qualities of a given vaccine. Ghost vaccine preparations result in empty bacterial shells that are intact except for holes produced by the lysis gene product when viewed by scanning electron microscopy (SEM). In contrast, organisms inactivated by supercritical carbon dioxide have intact cell walls (i.e., no lysis holes) and are not empty (i.e., the cytosolic contents are retained). Staphylococcus aureus and Pseudomonas aeruginosa were inactivated by at least 6-log with supercritical carbon dioxide at 40° C. and 2973 psi to 1500 psi for a total of six cycles over 4 hours. Escherichia coli was inactivated by at least 6-log with supercritical carbon dioxide at 34° C. and 2973 psi to 1500 psi for a total of three cycles over 0.5 hours.

Pseudomonas aeruginosa = assay: as above; type: cell-based; conditions: 40° C., 2973 psi to 1500 psi, six cycles over 4 hours
Excerpt: as §1

Staphylococcus aureus = assay: as above; type: cell-based; conditions: 40° C., 2973 psi to 1500 psi, six cycles over 4 hours
Excerpt: as §1

Salmonella typhimurium = assay: Inactivation of S. typhimurium, serial dilutions and colony counts; type: cell-based; conditions: Example 8: no chemical additive, water 1 vol. %, 35° C., 1500 psi constant for 15 minutes, greater than 10^9 CFU/mL
Procedure: A sample of Salmonella typhimurium (5 mL), […], of greater than 10^9 CFU/mL was placed into 16 mm test tubes in a stainless steel basket. Water was added on a cotton ball to the vessel at 1% of the total volume (1 vol. %) of the vessel. No chemical additive was placed in the vessel. The reactor vessel was heated to 35° C. and equilibrated with CO2 at atmospheric pressure. The stirring and agitation mechanisms were activated and vessel pressurized to 1500 psi and held constant for 15 minutes. The vessel was then depressurized and the contents removed for analysis. Quantitative analysis of any remaining Salmonella typhimurium in treated sample vs. untreated control was enumerated though serial dilutions and colony counts.

B. subtilis spore forms = conditions: process disclosed in the Dillow '864 patent, other investigators [27]; cited from earlier work
[2] = tested on: B. subtilis spore and vegetative forms; assay: Inactivation of B. subtilis spore and vegetative forms, CFU counted after serial dilution and culturing; type: cell-based, Bacillus subtilis
Procedure: The reactor vessel was heated to 50° C. and equilibrated with CO2 at atmospheric pressure. The stirring and agitation mechanisms were activated and the reactor vessel pressurized to 3000 psi for 40 minutes. The CO2 pressure was then allowed to drop to 1500 psi at a rate of 300 psi/minute. Agitation was carried out for 1 minute.
The loop was sealed and pressurized to 3000 psi.
The stirring was stopped and the basket was removed from the reactor vessel.
The reactor vessel was heated to 50° C. and equilibrated with CO2 at atmospheric pressure. […] The CO2 pressure was then allowed to drop to 1500 psi at a rate of 300 psi/minute.

O=C(O)C(F)(F)F [TFA, trifluoroacetic acid]
log inactivation ([1]; TFA as chemical additive in supercritical CO2, 1100 psi to 3000 psi, random and directional agitation): 6.4 log
CFU/mL after treatment ([1]; TFA as chemical additive in supercritical CO2, 1100 psi to 3000 psi): undetectable

O=C=O [supercritical carbon dioxide, carbon dioxide]
log inactivation ([1]; no chemical additive, Dillow '864 conditions, three cycles of 60° C. for two hours, 1500 psi to 3000 psi, random agitation): 1.0 log
CFU/mL after treatment ([1]; no chemical additive, three cycles of 60° C. for two hours, 1500 psi to 3000 psi): 2.1×10^5 CFU/mL
log inactivation (Escherichia coli): at least 6 log
log inactivation (Pseudomonas aeruginosa): at least 6 log
log inactivation (Staphylococcus aureus): at least 6 log
log reduction (Salmonella typhimurium): 9 log
log reduction in B. subtilis spore forms (B. subtilis spore forms): 3.5 log

CC(=O)O [Acetic acid, acetic acid]
kill of B. subtilis present ([2]; Example 3B: as Example 3A, samples of less than 10^6 CFU/ml): total kill
log reduction in CFU extrapolated for greater than 10^6 CFU/ml ([2]; Example 3B: extrapolated from total kill of samples below 10^6 CFU/ml): 6 log
log reduction ([2]; Example 7: acetic acid 6 mL then 4 mL per cycle in CO2, 50° C., 3000 psi 40 minutes to 1500 psi, three cycles): at least 6 log
